The values that follow come from patent publication US6410581B1, “Disubstituted biphenyloxazolines” (Bayer Aktiengesellschaft, priority 1997, dated 2002).

Series [1] relates to larvae of the mustard beetle (Phaedon cochleariae). Nature of the series: Phaedon larvae test. Format: in vivo. Particulars: after 7 days. Here is the method: (§1) Solvent: 7 parts by weight of dimethylformamide
(§2) Emulsifier: 1 part by weight of alkylaryl polyglycol ether
To produce a suitable preparation of active compound, 1 part of weight of active compound is mixed with the stated amount of solvent and the stated amount of emulsifier, and the concentrate is diluted with water to the desired concentration.
After the desired period of time, the kill in % is determined. 100% means that all the beetle larvae have been killed; 0% means that none of the beetle larvae have been killed.

Series [2] concerns All larval stages of Lucilia cuprina (OP resistant). Nature of the series: Test with fly larvae/development-inhibitory activity. Format: in vivo. Particulars: concentration 100 ppm. Here is the method: Test with Fly Larvae/development-inhibitory Activity
Test animals: All larval stages of Lucilia cuprina (OP resistant) [pupae and adults (without contact with the active compound)]
35 parts by weight of ethylene glycol monomethyl ether
35 parts by weight of nonylphenol polyglycol ether
To prepare a suitable formulation, 3 parts by weight of active compound are mixed with 7 parts of the abovementioned solvent-emulsifier mixture, and the resulting emulsion concentrate is diluted with water to the concentration desired in each case.
For each concentration, 30 to 50 larvae are transferred to horse meat (1 cm^3) located in glass tubes, and 500 μl of the test dilution are pipetted onto the meat. The glass tubes are placed into plastic beakers whose bottom is covered with sea sand and kept in a controlled-environment cabinet (26° C. ±1.5° C., 70% ±10% relative humidity). Larvicidal activity is checked after 24 hours and 48 hours. After the larvae have left (about 72 h), the glass tubes are removed and perforated plastic lids are placed on the beakers. After 1½ times the development period (hatching of the control flies), the hatched flies and the pupae/puparia are counted.
The criterion for the activity is the death of the treated larvae after 48 h (larvicidal effect), or inhibition of adults hatching from the pupae or inhibition of pupation. […]

The nature of series [3]: log p, n-octanol/water partition coefficient by reverse phase HPLC (H2O/CH3CN). Format: physicochemical. Conditions: pH 7.5.
Series [4] deals with caterpillars of the owlet moth (Spodoptera frugiperda). Nature of the series: Spodoptera test. Type of series: in vivo. Conditions: active compound concentration 0.1%, after 7 days. The procedure:
as §1, §2
(§3) To produce a suitable preparation of active compound, 1 part by weight of active compound is mixed with the stated amount of solvent and the stated amount of emulsifier, and the concentrate is diluted with water to the desired concentration.
Cabbage leaves (Brassica oleracea) are treated by being dipped into the active compound preparation of the desired concentration and populated with caterpillars of the owlet moth (Spodoptera frugiperda) while the leaves are still moist.
(§4) After the desired period of time, the kill in % is determined. 100% means that all the caterpillars have been killed; 0% means that none of the caterpillars have been killed.

Series [5] has as its system greenhouse red spider mite (Tetranychus urticae). Nature of the series: Tetranychus test (OP resistant/dip treatment). Format: in vivo. Particulars: active compound concentration 0.01%, after 7 days. Here is the method:
Tetranychus Test (OP Resistant/Dip Treatment)
Solvent: 3 parts by weight of dimethylformamide
as §2
To produce a suitable preparation of active compound, 1 part by weight of active compound is mixed with the stated amount of solvent and the stated amount of emulsifier, and the concentrate is diluted to the desired concentration using emulsifier-containing water.
Bean plants (Phaseolus vulgaris) which are heavily infested by all stages of the greenhouse red spider mite (Tetranychus urticae) are dipped into an active compound preparation of the desired concentration.
After the desired period of time, the kill in % is determined. 100% means that all the spider mites have been killed; 0% means that none of the spider mites have been killed.

The subject of series [6] is caterpillars of the army worm (Spodoptera exigua). Nature of the series: Spodoptera exigua test. Format: in vivo. Conditions: active compound concentration 0.1%, after 6 days. Here is the method: as §1, §2, §3
Cabbage leaves (Brassica oleracea) are treated by being dipped into the active compound preparation of the desired concentration and populated with caterpillars of the army worm (Spodoptera exigua) while the leaves are still moist.
After the desired period of time, the activity in % is determined. 100% means that all the caterpillars have been killed; 0% means that none of the caterpillars have been killed.

The subject of series [7] is caterpillars of the diamond back moth (Plutella xylostella). Nature of the series: Plutella test. Format: in vivo. Particulars: active compound concentration 0.1%, after 6 days. Here is the method:
as §1, §2, §3
Cabbage leaves (Brassica oleracea) are treated by being dipped into the active compound preparation of the desired concentration and populated with caterpillars of the diamond back moth (Plutella xylostella) while the leaves are still moist.
as §4

Series [8] has as its system caterpillars of the cotton bollworm (Heliothis armigera). Nature of the series: Heliothis armigera test. Format: in vivo. Conditions: active compound concentration 0.1%, in 6 days. The procedure: as §1, §2
To produce a suitable preparation of active compound, 1 part by weight of active compound is mixed with the stated amounts of solvent and emulsifier, and the concentrate is diluted with water to the desired concentration.
Soya bean shoots (Glycine max) are treated by being dipped into the active compound preparation of the desired concentration and populated with caterpillars of the cotton bollworm (Heliothis armigera) while the leaves are still moist.
as §4

In series [9] the test system is green rice leaf hoppers (Nephotettix cincticeps). Nature of the series: Nephotettix test. Format: in vivo. Conditions: active compound concentration 1%, after 6 days. The procedure:
as §1, §2, §3
Rice seedlings (Oryza sativa) are treated by being dipped into the active compound preparation of the desired concentration and populated with green rice leaf hoppers (Nephotettix cincticeps) while the seedlings are still moist.
After the desired period of time, the kill in % is determined. 100% means that all the leaf hoppers have been killed; 0% means that none of the leaf hoppers have been killed.

Where [10] appears, read: active compound concentration 0.01%.
[11] abbreviates: active compound concentration 0.1%.

Regarding `CCCc1cc(-c2ccc(C3COC(c4c(F)cccc4F)=N3)cc2)ccc1OC(C)C` (centres unmarked) [Example I-2, 2-(2,6-Difluorophenyl)-4-(4-(4-propyl-2-oxy)-3-n-propylphenyl)phenyl-2-oxazoline], the melting point was 60 to 62 °C. The kill in % in series [1] (setting [10]) worked out at 100%.
In series [1] (setting [10]), `CC(C)Oc1ccc(-c2ccc(C3COC(c4c(F)cccc4F)=N3)cc2)cc1Cl` (centres unmarked) [Example I-19] gave a kill in % of 100%. The compound also registered a development-inhibitory activity in series [2] of 100%. In addition, in series [3], the log p result is “log p (pH 7.5): 4.96”.
As to `CC(C)(C)c1ccc(COc2ccc(-c3ccc(C4COC(c5c(F)cccc5F)=N4)cc3)cc2Cl)cc1` (centres unmarked) [Example I-22], in series [2], the development-inhibitory activity is listed as 100%.
Consider `CC(C)Oc1c(Cl)cc(-c2ccc(C3COC(c4c(F)cccc4F)=N3)cc2)cc1Cl` (centres unmarked) [Example I-342, 2-(2,6-Difluorophenyl)-4-(4-(4-(propyl-2-oxy)-3,5-dichlorophenyl)phenyl)-4,5-dihydro-oxazoline], for which the kill in % in [1] (setting [11]), in series [4], in series [5], in series [6], in [7] and in series [8] was 100% each time. Further, the log p in [3] is 5.65.
For `C=CCOc1c(Cl)cc(-c2ccc(C3COC(c4c(F)cccc4F)=N3)cc2)cc1Cl` (centres unmarked) [Example I-344], the kill in % in series [1] (setting [11]), in [4], in [5] and in series [9] was 100% throughout.

As a reminder, the melting point is the temperature of the solid-liquid transition.
